Earlier results in patent US7087637B2, “Substituted indoles which are PARP inhibitors” (BASF AG, priority 2000, dated 2006).

Details: S. Cuzzocrea et al., Br. J. Pharmacol. 1997, 121, 1065–1074

For `NC(=O)c1cccc(N)c1` [3-aminobenzamide], the “effects in a model of circulatory shock” value is listed as “protective effects”.
